Laboratory results as given in patent publication US8426202B2, “Cell culture medium” (Cellca GmbH, priority 2005, dated 2013).
Values joined by “and” are separate entries in the source; they are usually repeats but may differ in a detail not shown here. Equal entries are not always repeated. Where two headings read alike, the source gives them in different places.

Legend:
[1] = test system: CHO cell line that expresses an antibody; settings: fed-batch, basal medium 4 mM glutamine, feed with 3 g/l Ala-Gln and 3 g/l Gly-Gln, substance 0.5-1 g/l
Description: (§1) A CHO cell line that expresses an antibody was used for the experiments.
The experiments were carried out either in batch mode or in fed-batch mode. When the process was carried out in fed-batch mode, the process was first started in batch mode in the above-mentioned basal medium and cells were cultivated in this manner for 1-4 days. After 1-4 days the cells were supplemented with a feed medium, i.e. the process was switched to fed-batch mode. Feed took place at regular intervals. In fed-batch experiments, a protein-free and serum-free feed medium from the company HyQ (R05.2 supplement, Cat. No.: SH30584.04, Lot No.: APF21457G) was used.
From the stock solutions, the substances were put at the desired final concentration in culture tubes. The various culture tubes prepared in this way were finally inoculated with the antibody-producing CHO-clone at a target inoculation cell concentration (1-3×10^5/ml). For this, the corresponding amount of inoculum cells was calculated and the required amount of inoculum cell suspension was centrifuged. […] In this way the desired inoculation cell concentration was adjusted in the cell suspension being investigated. The cell suspension thus prepared was proportioned in the culture tubes, which were provided with the substances according to the invention beforehand. The culture tubes were incubated at 37° C., and 8% CO2 atmosphere, with shaking. The culture tubes were cultivated for 8-11 days in the batch mode or in the fed-batch mode. Samples for offline measurement of the variables were taken from the culture vessels at regular intervals, for example daily or on every third day. The metabolic variables and cell concentrations of the samples were measured. Cell concentration and cell vitality were measured with a CeDex instrument. The metabolic variables (glucose, lactate, glutamine and ammonium) were determined with an analyzer (BioProfile 100).
(§2) The following final concentrations of the substances according to the invention were established in a nutrient medium after inoculation:
The substances according to the invention were tested under fed-batch conditions. […] The feed medium used was from the company HyQ (R05.2 supplement, Cat. No.: SH30584.04, Lot No.: APF21457G). 3 g/l alanyl-glutamine (Ala-Gin) and 3 g/l glycyl-glutamine (Gly-Gln) were added to the feed medium.

[2] = test system: CHO cell line that expresses an antibody; settings: fed-batch, glutamine-free basal and feed media, substance 0.5-1 g/l
Description: as §1
This is a serum-free, protein-free nutrient medium. It is a ready-made, sterile-filtered nutrient medium.
After 1-4 days the cells were supplemented with a feed medium, i.e. the process was switched to fed-batch mode. Feed took place at regular intervals. In fed-batch experiments, a protein-free and serum-free feed medium from the company HyQ (R05.2 supplement, Cat. No.: SH30584.04, Lot No.: APF21457G) was used.
All substances (chemicals) used according to the invention were obtained from the company Sigma and stock solutions were prepared from them. From the stock solutions, the substances were put at the desired final concentration in culture tubes. The various culture tubes prepared in this way were finally inoculated with the antibody-producing CHO-clone at a target inoculation cell concentration (1-3×10^5/ml). For this, the corresponding amount of inoculum cells was calculated and the required amount of inoculum cell suspension was centrifuged. […] In this way the desired inoculation cell concentration was adjusted in the cell suspension being investigated. The cell suspension thus prepared was proportioned in the culture tubes, which were provided with the substances according to the invention beforehand. The culture tubes were incubated at 37° C., and 8% CO2 atmosphere, with shaking. The culture tubes were cultivated for 8-11 days in the batch mode or in the fed-batch mode. Samples for offline measurement of the variables were taken from the culture vessels at regular intervals, for example daily or on every third day. The metabolic variables and cell concentrations of the samples were measured. Cell concentration and cell vitality were measured with a CeDex instrument. The metabolic variables (glucose, lactate, glutamine and ammonium) were determined with an analyzer (BioProfile 100).
as §2
The substances according to the invention were tested under fed-batch conditions. […] The feed medium used was from the company HyQ (R05.2 supplement, Cat. No.: SH30584.04, Lot No.: APF21457G). The feed medium was glutamine-free (Table 4).

[3] = test system: CHO cell line that expresses an antibody; settings: fed-batch; substance 1 g/l; supernatant, ELISA; absolute value of the control set at 100%
Description: A CHO cell line that expresses an antibody was used for the experiments. The product concentration (antibody concentration) in the cell supernatant was determined by ELISA.
From selected samples, the product concentration (antibody concentration) in the supernatant was determined by ELISA (Table 3)

[4] = test system: CHO cell line that expresses an antibody; assay: Fed-batch experiment with the substances according to the invention (Example 2, Table 2); assay type: cell-based, Chinese hamster
Description: Feed took place at regular intervals.

[5] = test system: CHO cell line that expresses an antibody; assay: Batch experiment with the substances according to the invention (Example 1); assay type: cell-based, Chinese hamster; settings: batch mode, substance 0.5-1 g/l, basal medium glucose 4.7 g/l, glutamine […]

With `O=C([O-])CCC(=O)[O-].[Na+].[Na+]` [Sodium succinate] the “Total Cell Density TCD” value ([1]; day 0) was 1.1 E5/ml, the Viabil. ([1]; day 0) was 96% and the “Viable Cell Density (VCD)” value ([1]; day 0) was 1.0 E5/ml. The “Total Cell Density TCD” value ([1]; day 3) was 9.3 E5/ml, the Viabil. ([1]; day 3) was 95% and the “Viable Cell Density (VCD)” value ([1]; day 3) was 8.8 E5/ml. For the same molecule, the “Total Cell Density TCD” value ([1]; day 5) was 56.7 E5/ml, the Viabil. ([1]; day 5) was 96% and the “Viable Cell Density (VCD)” value ([1]; day 5) was 54.3 E5/ml. For the same molecule, the “Total Cell Density TCD” value ([1]; day 7) was 42.0 E5/ml, the Viabil. ([1]; day 7) was 82% and the “Viable Cell Density (VCD)” value ([1]; day 7) was 34.5 E5/ml. The “Total Cell Density TCD” value ([1]; day 9) was 35.9 E5/ml, the Viabil. ([1]; day 9) was 74% and the “Viable Cell Density (VCD)” value ([1]; day 9) was 26.7 E5/ml. The “Sp. Gluc cons.” value ([2]; day 0) was 95, the “Sp. NH4 prod” value ([2]; day 0) was 98 % of control and the TCD ([2]; day 0) was 100 % of control. For the same molecule, the VCD ([2]; day 0) was 100 % of control, the Viabil. ([2]; day 0) was 94% and the “Sp. Gluc cons.” value ([2]; day 3) was 74. The “Sp. Lactate prod.” value ([2]; day 3) was 75 % of control, the “Sp. NH4 prod” value ([2]; day 3) was 72 % of control and the TCD ([2]; day 3) was 124 % of control. The VCD ([2]; day 3) was 132 % of control, the Viabil. ([2]; day 3) was 95% and the “Sp. Gluc cons.” value ([2]; day 5) was 88. The “Sp. Lactate prod.” value ([2]; day 5) was 93 % of control, the “Sp. NH4 prod” value ([2]; day 5) was 90 % of control and the TCD ([2]; day 5) was 108 % of control. For the same molecule, the VCD ([2]; day 5) was 111 % of control, the Viabil. ([2]; day 5) was 95% and the “Sp. Gluc cons.” value ([2]; day 7) was 78. For the same molecule, the “Sp. Lactate prod.” value ([2]; day 7) was 89 % of control, the “Sp. NH4 prod” value ([2]; day 7) was 85 % of control and the TCD ([2]; day 7) was 118 % of control. The VCD ([2]; day 7) was 117 % of control, the Viabil. ([2]; day 7) was 87% and the “Sp. Gluc cons.” value ([2]; day 9) was 69. The “Sp. Lactate prod.” value ([2]; day 9) was 78 % of control, the “Sp. NH4 prod” value ([2]; day 9) was 74 % of control and the TCD ([2]; day 9) was 134 % of control. The VCD ([2]; day 9) was 136 % of control, the Viabil. ([2]; day 9) was 94% and the Antibody concentration [3] was 127%. The “Total Cell Density TCD” value ([4]; day 0, fed-batch) was 1.5 E5/ml, the Viabil. ([4]; day 0, fed-batch) was 91% and the “Viable Cell Density (VCD)” value ([4]; day 0, fed-batch) was 1.37 E5/ml. The “Total Cell Density TCD” value ([4]; day 2, fed-batch) was 4.2 E5/ml and 4.4 E5/ml, the Viabil. ([4]; day 2, fed-batch) was 98% and the “Viable Cell Density (VCD)” value ([4]; day 2, fed-batch) was 4.1 E5/ml and 4.3 E5/ml. For the same molecule, the “Total Cell Density TCD” value ([4]; day 5, fed-batch) was 18.1 E5/ml, the Viabil. ([4]; day 5, fed-batch) was 97% and the “Viable Cell Density (VCD)” value ([4]; day 5, fed-batch) was 17.5 E5/ml. For the same molecule, the “Total Cell Density TCD” value ([4]; day 8, fed-batch) was 62.2 E5/ml and 64.1 E5/ml, the Viabil. ([4]; day 8, fed-batch) was 90% and 92% and the “Viable Cell Density (VCD)” value ([4]; day 8, fed-batch) was 55.7 E5/ml and 58.8 E5/ml. The Gln ([5]; day 0) was 1.53 mM, the Glucose ([5]; day 0) was 4.69 g/L and the Lactate ([5]; day 0) was 0 g/L. The NH4 ([5]; day 0) was 1.22 mM, the “Specific Glutamin consumption (Gln/VCD)” value ([5]; day 0) was 1.49 and the “Specific ammonia production (NH4/VCD)” value ([5]; day 0) was 1.18. The “Specific glucose consumption (Gluc/VCD)” value ([5]; day 0) was 4.55, the “Specific lactate production (Lac/VCD)” value ([5]; day 0) was 0.00 and the “Total Cell Density TCD” value ([5]; day 0) was 1.07 E5/ml. The Viabil. ([5]; day 0) was 96%, the “Viable Cell Density (VCD)” value ([5]; day 0) was 1.03 E5/ml and the Gln ([5]; day 3) was 0.76 mM. The Glucose ([5]; day 3) was 3.82 g/L, the Lactate ([5]; day 3) was 0.86 g/L and the NH4 ([5]; day 3) was 1.84 mM. For the same molecule, the “Specific Glutamin consumption (Gln/VCD)” value ([5]; day 3) was 0.09, the “Specific ammonia production (NH4/VCD)” value ([5]; day 3) was 0.22 and the “Specific glucose consumption (Gluc/VCD)” value ([5]; day 3) was 0.47. For the same molecule, the “Specific lactate production (Lac/VCD)” value ([5]; day 3) was 0.10, the “Total Cell Density TCD” value ([5]; day 3) was 8.3 E5/ml and the Viabil. ([5]; day 3) was 99%. For the same molecule, the “Viable Cell Density (VCD)” value ([5]; day 3) was 8.2 E5/ml, the Gln ([5]; day 6) was 0.31 mM and the Glucose ([5]; day 6) was 2.4 g/L. The Lactate ([5]; day 6) was 1.19 g/L, the NH4 ([5]; day 6) was 2.25 mM and the “Specific Glutamin consumption (Gln/VCD)” value ([5]; day 6) was 0.01. For the same molecule, the “Specific ammonia production (NH4/VCD)” value ([5]; day 6) was 0.05, the “Specific glucose consumption (Gluc/VCD)” value ([5]; day 6) was 0.05 and the “Specific lactate production (Lac/VCD)” value ([5]; day 6) was 0.02. For the same molecule, the “Total Cell Density TCD” value ([5]; day 6) was 49.1 E5/ml, the Viabil. ([5]; day 6) was 98% and the “Viable Cell Density (VCD)” value ([5]; day 6) was 48.1 E5/ml. The Gln ([5]; day 8) was 0.36 mM, the Glucose ([5]; day 8) was 1.44 g/L and the Lactate ([5]; day 8) was 1.14 g/L. The NH4 ([5]; day 8) was 2.33 mM, the “Specific Glutamin consumption (Gln/VCD)” value ([5]; day 8) was 0.01 and the “Specific ammonia production (NH4/VCD)” value ([5]; day 8) was 0.09. For the same molecule, the “Specific glucose consumption (Gluc/VCD)” value ([5]; day 8) was 0.06, the “Specific lactate production (Lac/VCD)” value ([5]; day 8) was 0.04 and the “Total Cell Density TCD” value ([5]; day 8) was 29.8 E5/ml. For the same molecule, the Viabil. ([5]; day 8) was 86%, the “Viable Cell Density (VCD)” value ([5]; day 8) was 25.6 E5/ml and the Gln ([5]; day 11) was 0.52 mM. It also gave a Glucose ([5]; day 11) of 0.22 g/L, a Lactate ([5]; day 11) of 1.59 g/L and an NH4 ([5]; day 11) of 3 mM. For the same molecule, the “Specific Glutamin consumption (Gln/VCD)” value ([5]; day 11) was 0.03, the “Specific ammonia production (NH4/VCD)” value ([5]; day 11) was 0.18 and the “Specific glucose consumption (Gluc/VCD)” value ([5]; day 11) was 0.01. For the same molecule, the “Specific lactate production (Lac/VCD)” value ([5]; day 11) was 0.10, the “Total Cell Density TCD” value ([5]; day 11) was 32.8 E5/ml and the Viabil. ([5]; day 11) was 50%. The “Viable Cell Density (VCD)” value ([5]; day 11) was 16.3 E5/ml.
